Experimental findings from US12258327B2, “5-membered heteroaryl-containing aminopyridine compounds as EGFR inhibitors” (YUHAN CORPORATION, priority 2021, dated 2025) are described below.

Where two headings read alike, the source gives them in different places. Bounds are passed on as bounds.

Assay [1] concerns the target EGFR L858R/T790M/C797S (Homo sapiens, UniProt P00533, C797S/L858R/T790M). Put plainly: Biochemical EGFR kinase assay (Lance Ultra TR-FRET), triple mutant L858R/T790M/C797S. Summed up: (§1)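 Enzyme reactions lasted 1 hour at room temperature with test compounds between 0.003 and 10 μM, followed by 10 mM EDTA quench.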
In general terms: TR-FRET usually uses a lanthanide donor and a delayed reading to cut background.

Assay [2] deals with EGFR L858R/C797S (Homo sapiens, UniProt P00533, C797S/L858R). As to the kind of experiment: Biochemical EGFR kinase assay (Lance Ultra TR-FRET), double mutant L858R/C797S. Put shortly:
as §1

Assay [3] deals with EGFR del19/C797S (Homo sapiens, UniProt P00533, C797S/DEL746-750). Put plainly: Biochemical EGFR kinase assay (Lance Ultra TR-FRET), double mutant del19/C797S. Put shortly:
as §1

In assay [4] the target is EGFR del19/T790M/C797S (Homo sapiens, UniProt P00533, C797S/DEL746-750/T790M). Put plainly: Biochemical EGFR kinase assay (Lance Ultra TR-FRET), triple mutant del19/T790M/C797S. Summed up: as §1
Assay [5] concerns the target EGFR wildtype (WT) (Homo sapiens, UniProt P00533). Put plainly: Biochemical EGFR kinase assay (Lance Ultra TR-FRET), wildtype. Put shortly: as §1
Setting [6] is: Km ATP, read-out: IC50 L858R/T790M/C797S (nM) Km ATP.
The mark [7] stands for this setting: Km ATP, read-out: IC50 L858R/C797S (nM) Km ATP.
Where [8] appears, read: Km ATP, read-out: IC50 del19/C797S (nM) Km ATP.
The mark [9] stands for this setting: Km ATP, read-out: IC50 del19/T790M/C797S (nM) Km ATP.
Setting [10] is: Km ATP, read-out: IC50 WT (nM) Km ATP.
Where [11] appears, read: IC50 L858R/T790M/C797S (nM) 100 μM ATP, 100 μM ATP.
The mark [12] stands for this setting: IC50 L858R/C797S (nM) 100 μM ATP, 100 μM ATP.
[13] abbreviates: IC50 del19/C797S (nM) 100 μM ATP, 100 μM ATP.
Setting [14] is: IC50 del19/T790M/C797S (nM) 100 μM ATP, 100 μM ATP.
The mark [15] stands for this setting: IC50 WT (nM) 100 μM ATP, 100 μM ATP.
Where [16] appears, read: Km ATP, read-out: IC50 L858R/T790M/C797S, Km ATP.
Setting [17] is: Km ATP, read-out: IC50 L858R/C797S, Km ATP.
Setting [18] is: Km ATP, read-out: IC50 del19/C797S, Km ATP.
Setting [19] is: Km ATP, read-out: IC50 del19/T790M/C797S, Km ATP.
The mark [20] stands for this setting: Km ATP, read-out: IC50 WT, Km ATP.

EGFR wildtype (WT), sequence (P00533 25-1210): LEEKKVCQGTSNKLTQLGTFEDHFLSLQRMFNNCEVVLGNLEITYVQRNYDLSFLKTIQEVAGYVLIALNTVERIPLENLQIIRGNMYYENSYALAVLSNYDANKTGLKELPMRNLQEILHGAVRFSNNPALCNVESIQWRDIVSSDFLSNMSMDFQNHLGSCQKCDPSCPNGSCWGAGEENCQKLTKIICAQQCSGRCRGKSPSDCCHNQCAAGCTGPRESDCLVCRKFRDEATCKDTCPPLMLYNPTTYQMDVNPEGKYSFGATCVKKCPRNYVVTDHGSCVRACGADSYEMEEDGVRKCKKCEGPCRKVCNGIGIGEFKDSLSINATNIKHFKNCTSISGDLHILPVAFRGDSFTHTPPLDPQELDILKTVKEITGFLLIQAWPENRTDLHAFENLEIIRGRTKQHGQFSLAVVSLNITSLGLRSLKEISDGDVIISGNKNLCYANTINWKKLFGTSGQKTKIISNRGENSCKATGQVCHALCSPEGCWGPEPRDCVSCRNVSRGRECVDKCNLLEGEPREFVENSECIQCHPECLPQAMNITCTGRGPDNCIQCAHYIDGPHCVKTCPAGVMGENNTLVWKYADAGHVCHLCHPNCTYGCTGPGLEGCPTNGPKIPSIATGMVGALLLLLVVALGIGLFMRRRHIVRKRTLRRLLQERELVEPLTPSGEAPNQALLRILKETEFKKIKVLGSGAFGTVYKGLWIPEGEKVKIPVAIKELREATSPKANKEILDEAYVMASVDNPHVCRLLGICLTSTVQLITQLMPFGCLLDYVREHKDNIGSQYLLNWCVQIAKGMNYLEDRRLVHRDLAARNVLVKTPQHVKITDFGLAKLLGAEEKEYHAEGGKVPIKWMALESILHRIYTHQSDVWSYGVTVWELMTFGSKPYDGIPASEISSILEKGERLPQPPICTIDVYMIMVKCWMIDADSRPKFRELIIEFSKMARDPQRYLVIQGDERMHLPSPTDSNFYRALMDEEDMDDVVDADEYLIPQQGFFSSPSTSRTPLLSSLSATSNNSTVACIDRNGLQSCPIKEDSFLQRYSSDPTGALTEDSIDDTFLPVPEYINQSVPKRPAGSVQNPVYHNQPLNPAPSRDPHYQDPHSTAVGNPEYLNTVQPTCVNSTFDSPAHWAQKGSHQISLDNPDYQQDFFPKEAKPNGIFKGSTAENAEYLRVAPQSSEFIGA
EGFR L858R/T790M/C797S, sequence (P00533 25-1210 T790M/C797S/L858R): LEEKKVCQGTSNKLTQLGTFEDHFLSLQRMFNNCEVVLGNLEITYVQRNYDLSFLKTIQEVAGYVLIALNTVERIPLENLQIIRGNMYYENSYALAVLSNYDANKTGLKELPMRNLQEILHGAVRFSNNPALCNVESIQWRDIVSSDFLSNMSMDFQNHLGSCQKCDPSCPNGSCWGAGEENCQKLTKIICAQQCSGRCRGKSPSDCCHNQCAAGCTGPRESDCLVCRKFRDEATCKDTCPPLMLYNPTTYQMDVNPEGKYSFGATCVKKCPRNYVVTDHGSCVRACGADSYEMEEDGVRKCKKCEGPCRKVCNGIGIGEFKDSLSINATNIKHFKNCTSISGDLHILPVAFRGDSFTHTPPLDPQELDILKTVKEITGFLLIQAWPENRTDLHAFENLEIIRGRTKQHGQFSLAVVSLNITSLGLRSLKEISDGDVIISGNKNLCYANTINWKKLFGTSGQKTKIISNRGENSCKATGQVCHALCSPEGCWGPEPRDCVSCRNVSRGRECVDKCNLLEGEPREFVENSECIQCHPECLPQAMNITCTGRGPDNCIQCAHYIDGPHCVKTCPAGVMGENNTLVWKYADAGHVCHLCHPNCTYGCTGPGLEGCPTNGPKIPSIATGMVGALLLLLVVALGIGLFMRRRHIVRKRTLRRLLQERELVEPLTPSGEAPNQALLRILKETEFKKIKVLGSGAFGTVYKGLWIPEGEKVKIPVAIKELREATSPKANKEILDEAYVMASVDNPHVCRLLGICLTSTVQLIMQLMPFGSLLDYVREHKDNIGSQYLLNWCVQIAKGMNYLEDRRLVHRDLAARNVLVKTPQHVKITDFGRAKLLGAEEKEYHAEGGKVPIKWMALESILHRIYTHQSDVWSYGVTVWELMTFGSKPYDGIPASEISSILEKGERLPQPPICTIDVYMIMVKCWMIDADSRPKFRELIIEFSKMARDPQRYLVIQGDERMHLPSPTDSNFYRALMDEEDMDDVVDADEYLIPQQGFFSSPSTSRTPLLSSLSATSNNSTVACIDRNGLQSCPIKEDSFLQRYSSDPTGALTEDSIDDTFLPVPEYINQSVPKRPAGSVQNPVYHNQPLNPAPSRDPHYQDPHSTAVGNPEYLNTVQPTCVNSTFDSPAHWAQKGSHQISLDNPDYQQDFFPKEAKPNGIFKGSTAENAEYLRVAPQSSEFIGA
EGFR del19/C797S, sequence (P00533 with tags, fused parts or gaps DEL746-750/C797S): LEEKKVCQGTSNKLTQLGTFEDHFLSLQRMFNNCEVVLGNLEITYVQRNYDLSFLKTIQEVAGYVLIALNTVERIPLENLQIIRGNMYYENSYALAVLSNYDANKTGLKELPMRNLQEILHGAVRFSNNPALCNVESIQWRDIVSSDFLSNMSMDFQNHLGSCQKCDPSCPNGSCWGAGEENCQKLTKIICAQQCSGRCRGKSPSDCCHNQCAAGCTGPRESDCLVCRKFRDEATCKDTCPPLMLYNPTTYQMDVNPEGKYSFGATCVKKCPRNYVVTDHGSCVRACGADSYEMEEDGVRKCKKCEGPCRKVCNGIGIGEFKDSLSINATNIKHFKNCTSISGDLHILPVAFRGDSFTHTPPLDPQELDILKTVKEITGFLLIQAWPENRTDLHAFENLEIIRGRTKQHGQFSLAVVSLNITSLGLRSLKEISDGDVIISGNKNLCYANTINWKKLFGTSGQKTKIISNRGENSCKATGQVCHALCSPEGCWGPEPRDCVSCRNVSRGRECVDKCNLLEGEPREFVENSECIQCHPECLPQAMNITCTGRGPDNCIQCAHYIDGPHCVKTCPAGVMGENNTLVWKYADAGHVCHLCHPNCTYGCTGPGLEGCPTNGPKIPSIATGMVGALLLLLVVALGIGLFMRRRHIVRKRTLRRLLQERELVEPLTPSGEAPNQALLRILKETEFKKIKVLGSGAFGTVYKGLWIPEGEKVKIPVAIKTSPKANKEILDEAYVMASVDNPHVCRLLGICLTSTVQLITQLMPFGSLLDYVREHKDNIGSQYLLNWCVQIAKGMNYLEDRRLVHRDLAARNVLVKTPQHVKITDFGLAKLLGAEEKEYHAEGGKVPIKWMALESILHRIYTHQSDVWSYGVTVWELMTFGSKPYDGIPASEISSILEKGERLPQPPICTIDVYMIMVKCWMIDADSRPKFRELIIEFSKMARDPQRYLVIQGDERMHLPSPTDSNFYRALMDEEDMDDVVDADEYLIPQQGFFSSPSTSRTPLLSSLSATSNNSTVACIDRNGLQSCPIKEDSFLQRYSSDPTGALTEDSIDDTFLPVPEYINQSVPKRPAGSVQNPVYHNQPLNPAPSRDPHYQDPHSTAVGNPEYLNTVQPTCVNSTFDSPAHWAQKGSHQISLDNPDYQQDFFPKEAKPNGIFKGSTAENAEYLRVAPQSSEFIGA
EGFR del19/T790M/C797S, sequence (P00533 with tags, fused parts or gaps DEL746-750/T790M/C797S): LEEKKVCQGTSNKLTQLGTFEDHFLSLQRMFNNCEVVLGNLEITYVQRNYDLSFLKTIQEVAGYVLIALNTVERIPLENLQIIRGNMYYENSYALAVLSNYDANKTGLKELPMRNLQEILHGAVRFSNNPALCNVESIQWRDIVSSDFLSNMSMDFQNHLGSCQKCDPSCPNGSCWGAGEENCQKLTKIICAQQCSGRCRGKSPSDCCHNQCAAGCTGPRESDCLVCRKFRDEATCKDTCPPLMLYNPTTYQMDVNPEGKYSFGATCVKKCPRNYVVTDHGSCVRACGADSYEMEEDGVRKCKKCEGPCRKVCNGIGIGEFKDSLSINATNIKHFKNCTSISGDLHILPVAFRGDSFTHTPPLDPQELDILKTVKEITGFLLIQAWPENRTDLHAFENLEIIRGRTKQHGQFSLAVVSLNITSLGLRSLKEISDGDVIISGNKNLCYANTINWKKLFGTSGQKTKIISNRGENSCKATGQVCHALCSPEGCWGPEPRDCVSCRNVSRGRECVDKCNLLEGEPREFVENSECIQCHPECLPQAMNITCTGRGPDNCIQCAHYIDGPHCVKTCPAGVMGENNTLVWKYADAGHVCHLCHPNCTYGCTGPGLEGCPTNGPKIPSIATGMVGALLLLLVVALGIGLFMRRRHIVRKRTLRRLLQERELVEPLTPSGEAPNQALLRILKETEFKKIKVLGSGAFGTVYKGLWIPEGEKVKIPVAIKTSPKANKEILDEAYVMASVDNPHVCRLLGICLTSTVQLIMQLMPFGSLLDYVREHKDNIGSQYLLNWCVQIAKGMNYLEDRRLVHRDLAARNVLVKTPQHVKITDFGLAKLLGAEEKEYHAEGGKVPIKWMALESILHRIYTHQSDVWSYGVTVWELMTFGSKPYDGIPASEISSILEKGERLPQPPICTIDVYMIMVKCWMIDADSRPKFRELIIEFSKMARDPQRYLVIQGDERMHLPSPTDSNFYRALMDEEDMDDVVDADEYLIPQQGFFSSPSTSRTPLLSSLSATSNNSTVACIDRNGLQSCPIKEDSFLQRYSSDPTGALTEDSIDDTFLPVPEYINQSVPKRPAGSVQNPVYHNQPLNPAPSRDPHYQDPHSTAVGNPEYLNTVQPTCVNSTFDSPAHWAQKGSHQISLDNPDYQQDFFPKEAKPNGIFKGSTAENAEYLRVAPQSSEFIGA

On to `CS(=O)(=O)n1ccc(-c2nccc(Nc3cc(N[C@H]4CC[C@@](C)(O)CC4)c(-c4ccn(C(F)F)n4)cn3)n2)c1` [Example 108, (1s,4s)-4-((5-(1-(Difluoromethyl)-1H-pyrazol-3-yl)-2-((2-(1-(methylsulfonyl)-1H-pyrrol-3-yl)pyrimidin-4-yl)amino)pyridin-4-yl)amino)-1-methylcyclohexan-1-ol], for which the IC50 in assay [1] (setting [6]) came out at 0.5 nM; in assay [2] (setting [7]), 2 nM; in assay [3] (setting [8]), 23.7 nM; in assay [4] (setting [9]) it was 1.2 nM; in assay [5] (setting [10]), 57.2 nM.

Turning to `C[C@]1(O)CC[C@@H](Nc2cc(Nc3nc(-c4cnn(S(=O)(=O)C5CC5)c4)ncc3F)ncc2-c2ccn(C(F)F)n2)CC1` [Example 316, (1s,4s)-4-((2-((2-(1-(Cyclopropylsulfonyl)-1H-pyrazol-4-yl)-5-fluoropyrimidin-4-yl)amino)-5-(1-(difluoromethyl)-1H-pyrazol-3-yl)pyridin-4-yl)amino)-1-methylcyclohexan-1-ol], the IC50 in assay [1] (setting [11]) was found to be 1 nM; in assay [1] (setting [6]), 0.2 nM; in assay [2] (setting [12]), 406 nM; in assay [2] (setting [7]) it was 11.2 nM; in assay [3] (setting [13]), 10.5 nM; in assay [3] (setting [8]) it was 6 nM. Moreover, the IC50 in assay [4] (setting [14]) was 0.7 nM; in assay [4] (setting [9]), 0.4 nM; in assay [5] (setting [15]), above 10000 nM; in assay [5] (setting [10]), 46 nM.

As for `Cc1nn(CC(F)(F)F)cc1-c1nccc(Nc2cc(N[C@H]3CC[C@@](C)(O)CC3)c(-c3ccn(C(F)F)n3)nn2)n1` [Example 375, (1s,4s)-4-((3-(1-(Difluoromethyl)-1H-pyrazol-3-yl)-6-((2-(3-methyl-1-(2,2,2-trifluoroethyl)-1H-pyrazol-4-yl)pyrimidin-4-yl)amino)pyridazin-4-yl)amino)-1-methylcyclohexan-1-ol], the IC50 in assay [1] (setting [16]) came to 11.1 nM; in assay [2] (setting [17]), 51.4 nM; in assay [3] (setting [18]), 1150 nM; in assay [4] (setting [19]), 16.4 nM; in assay [5] (setting [20]), 2290 nM.

`C[C@]1(O)CC[C@@H](Nc2nc(Nc3ccnc(-c4cnn(S(=O)(=O)C5CC5)c4)c3)ncc2-c2ccn(CC(F)F)n2)CC1` [Example 357, (1s,4s)-4-((2-((2-(1-(Cyclopropylsulfonyl)-1H-pyrazol-4-yl)pyridin-4-yl)amino)-5-(1-(2,2-difluoroethyl)-1H-pyrazol-3-yl)pyrimidin-4-yl)amino)-1-methylcyclohexan-1-ol]: the IC50 in assay [1] (setting [16]) worked out at 0.4 nM; in assay [2] (setting [17]), 8.4 nM; in assay [3] (setting [18]), 5.2 nM; in assay [4] (setting [19]), 0.2 nM; in assay [5] (setting [20]) it was 46.2 nM.

For the compound `Cc1cc(-c2cnc(Nc3ccnc(-c4cnn(S(=O)(=O)C5CC5)c4)n3)cc2N[C@H]2CC[C@@H](CO)CC2)nn1C` [Example 280, ((1s,4s)-4-((2-((2-(1-(Cyclopropylsulfonyl)-1H-pyrazol-4-yl)pyrimidin-4-yl)amino)-5-(1,5-dimethyl-1H-pyrazol-3-yl)pyridin-4-yl)amino)cyclohexyl)methanol], the IC50 is 0.7 nM in assay [1] (setting [11]); 1 nM in assay [1] (setting [6]); 3.8 nM in assay [2] (setting [12]); 0.3 nM in assay [2] (setting [7]); 0.7 nM in assay [3] (setting [13]); 0.2 nM in assay [3] (setting [8]). Moreover, the IC50 in assay [4] (setting [14]) turned out to be 1 nM; in assay [4] (setting [9]) it was 0.8 nM; in assay [5] (setting [15]), 51.9 nM; in assay [5] (setting [10]), 0.4 nM.

`O=S(=O)(C1CC1)n1cc(-c2nccc(Nc3cc(N[C@H]4CC[C@@H](NCC(F)F)CC4)c(-c4ccn(C(F)F)n4)cn3)n2)cn1` [Example 23, N^2-(2-(1-(Cyclopropylsulfonyl)-1H-pyrazol-4-yl)pyrimidin-4-yl)-N^4-((1s,4s)-4-((2,2-difluoroethyl)amino)cyclohexyl)-5-(1-(difluoromethyl)-1H-pyrazol-3-yl)pyridine-2,4-diamine]: the IC50 was 1 nM in assay [1] (setting [11]); 0.4 nM in assay [1] (setting [6]); 7.4 nM in assay [2] (setting [12]); 1.8 nM in assay [2] (setting [7]); 0.9 nM in assay [3] (setting [13]); 0.8 nM in assay [3] (setting [8]). The IC50 in assay [4] (setting [14]) was 1.3 nM; in assay [4] (setting [9]), 0.7 nM; in assay [5] (setting [15]), above 10000 nM; in assay [5] (setting [10]) it was 6.9 nM.

Take `C[C@]1(O)CC[C@@H](Nc2cc(Nc3ccnc(-c4cnn(S(=O)(=O)C5CC5)c4)n3)nnc2-c2ccn(C(F)F)n2)CC1` [Example 372, (1s,4s)-4-((6-((2-(1-(Cyclopropylsulfonyl)-1H-pyrazol-4-yl)pyrimidin-4-yl)amino)-3-(1-(difluoromethyl)-1H-pyrazol-3-yl)pyridazin-4-yl)amino)-1-methylcyclohexan-1-ol]: the IC50 in assay [1] (setting [16]) worked out at 0.2 nM; in assay [2] (setting [17]) it was 3.7 nM; in assay [3] (setting [18]) it was 6.9 nM; in assay [4] (setting [19]) it was 0.6 nM; in assay [5] (setting [20]), 108 nM.
